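48-hour exposure; five concentrations; linearly interpolated endpoints. Here, GI50 denotes the concentration required for 50% inhibition of growth.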 Activity calls are given as the source filed them. Rule as the data show it: active = GI50 up to about 1.1 µM and inactive = higher.
Columns and labels:
Experiment in all cases: NCI-60 cell line screen, 48 h
[1] = test system: HT-29
[2] = test system: IGROV-1
[3] = test system: SK-MEL-28
[4] = test system: HOP-62
[5] = test system: U-251
[6] = test system: MCF7
[7] = test system: SK-MEL-5
[8] = test system: SR
[9] = test system: A498
[10] = test system: NCI-H226
[11] = test system: HCT-116
[12] = test system: HL-60
[13] = test system: RPMI-8226
[14] = test system: UACC-257
[15] = test system: BT-549
[16] = test system: EKVX
[17] = test system: MDA-MB-231
[18] = test system: COLO 205
[19] = test system: SN12C
[20] = test system: SK-OV-3
[21] = test system: K562
[22] = test system: SK-MEL-2
[23] = test system: SF-539
[24] = test system: SF-268
[25] = test system: NCI-H23
[26] = test system: OVCAR-3
[27] = test system: Hs-578T
[28] = test system: NCI-H522
[29] = test system: 786-0
[30] = test system: OVCAR-8
[31] = test system: OVCAR-4
[32] = test system: DU-145
[33] = test system: NCI/ADR-RES
[34] = test system: OVCAR-5
[35] = test system: T47D
[36] = test system: A549
[37] = test system: RXF 393
[38] = test system: MDA-MB-435
[39] = test system: PC-3
[40] = test system: CCRF-CEM
[41] = test system: UO-31
[42] = test system: CAKI-1
[43] = test system: HOP-92
[44] = test system: TK-10
[45] = test system: NCI-H460
[46] = test system: ACHN
[47] = test system: SW-620
[48] = test system: LOX IMVI
[49] = test system: SNB-19
[50] = test system: HCT-15
[51] = test system: MDA-N
[52] = test system: Malme-3M
[53] = test system: MOLT-4
[54] = test system: SF-295
[55] = test system: HCC 2998
[56] = test system: KM12
[57] = test system: M14
[58] = test system: UACC-62
[59] = test system: SNB-75

c1ccc([C@@H]2N[C@@]3(CO[Si](c4ccccc4)(c4ccccc4)c4ccccc4)CC[C@H]4CN[C@@H]2[C@H]43)cc1
GI50 [1]: 2550 nM (inactive)
GI50 [2]: 12800 nM (inactive)
GI50 [3]: 14900 nM (inactive)
GI50 [4]: 16600 nM (inactive)
GI50 [5]: 16900 nM (inactive)
GI50 [6]: 2990 nM (inactive)
GI50 [7]: 6470 nM (inactive)
GI50 [8]: 3150 nM (inactive)
GI50 [9]: 15300 nM (inactive)
GI50 [10]: 12400 nM (inactive)
GI50 [11]: 3230 nM (inactive)
GI50 [12]: 4360 nM (inactive)
GI50 [13]: 2760 nM (inactive)
GI50 [14]: 14300 nM (inactive)
GI50 [15]: 20900 nM (inactive)
GI50 [16]: 15300 nM (inactive)
GI50 [17]: 11800 nM (inactive)
GI50 [18]: 1680 nM (inactive)
GI50 [19]: 13200 nM (inactive)
GI50 [20]: 16200 nM (inactive)
GI50 [21]: 3330 nM (inactive)
GI50 [22]: 17900 nM (inactive)
GI50 [23]: 15300 nM (inactive)
GI50 [24]: 4630 nM (inactive)
GI50 [25]: 15500 nM (inactive)
GI50 [26]: 13800 nM (inactive)
GI50 [27]: 13800 nM (inactive)
GI50 [28]: 3430 nM (inactive)
GI50 [29]: 12400 nM (inactive)
GI50 [30]: 13100 nM (inactive)
GI50 [31]: 13600 nM (inactive)
GI50 [32]: 10200 nM (inactive)
GI50 [33]: 15400 nM (inactive)
GI50 [34]: 16100 nM (inactive)
GI50 [35]: 4070 nM (inactive)
GI50 [36]: 12300 nM (inactive)
GI50 [37]: 4300 nM (inactive)
GI50 [38]: 8510 nM (inactive)
GI50 [39]: 9060 nM (inactive)
GI50 [40]: 16000 nM (inactive)
GI50 [41]: 10800 nM (inactive)
GI50 [42]: 12400 nM (inactive)
GI50 [43]: 4610 nM (inactive)
GI50 [44]: 16700 nM (inactive)
GI50 [45]: 10400 nM (inactive)
GI50 [46]: 13700 nM (inactive)
GI50 [47]: 3250 nM (inactive)
GI50 [48]: 10400 nM (inactive)
GI50 [49]: 17200 nM (inactive)
GI50 [50]: 3170 nM
GI50 [51]: 3580 nM (inactive)
GI50 [52]: 59.8 nM (active)
GI50 [53]: 3750 nM (inactive)
GI50 [54]: 12400 nM (inactive)
GI50 [55]: 1660 nM (inactive)
GI50 [56]: 3620 nM (inactive)
GI50 [57]: 5650 nM (inactive)
GI50 [58]: 14300 nM (inactive)

CC(=O)O[C@H]1C(=O)[C@@]2(C)[C@H]([C@H](OC(=O)c3ccccc3)[C@]3(O)C[C@H](OC(=O)[C@H](O)[C@@H](NC(=O)c4ccccc4)c4ccc5ccccc5c4)C(C)=C1C3(C)C)[C@]1(OC(C)=O)CO[C@@H]1C[C@@H]2O
GI50 [1]: 45.4 nM (active)
GI50 [2]: 46.7 nM (active)
GI50 [3]: 132 nM (active)
GI50 [4]: 50.6 nM (active)
GI50 [5]: 69.2 nM (active)
GI50 [6]: 9.66 nM (active)
GI50 [7]: 68.5 nM (active)
GI50 [8]: 23.9 nM (active)
GI50 [9]: 467 nM (active)
GI50 [11]: 26.6 nM (active)
GI50 [12]: 10.7 nM (active)
GI50 [13]: 22.9 nM (active)
GI50 [14]: 82.6 nM (active)
GI50 [15]: 80.7 nM (active)
GI50 [16]: 5350 nM (inactive)
GI50 [17]: 47.6 nM (active)
GI50 [18]: 78.7 nM (active)
GI50 [19]: 68.1 nM (active)
GI50 [20]: 24.8 nM (active)
GI50 [21]: 29 nM (active)
GI50 [22]: 36.2 nM (active)
GI50 [23]: 33.6 nM (active)
GI50 [24]: 23.9 nM (active)
GI50 [25]: 91.2 nM (active)
GI50 [26]: 36.2 nM (active)
GI50 [27]: 19.1 nM (active)
GI50 [28]: 52.4 nM (active)
GI50 [29]: 153 nM (active)
GI50 [30]: 91 nM (active)
GI50 [31]: 841 nM (active)
GI50 [32]: 100 nM (active)
GI50 [33]: 15700 nM (inactive)
GI50 [34]: 153 nM (active)
GI50 [35]: 2160 nM (inactive)
GI50 [36]: 99.8 nM (active)
GI50 [37]: 219 nM (active)
GI50 [38]: 9.93 nM (active)
GI50 [39]: 55.3 nM (active)
GI50 [40]: 28.7 nM (active)
GI50 [41]: 2390 nM (inactive)
GI50 [42]: 1590 nM (inactive)
GI50 [43]: 2250 nM (inactive)
GI50 [44]: 506 nM (active)
GI50 [45]: 70.6 nM (active)
GI50 [46]: 1510 nM (inactive)
GI50 [47]: 30.6 nM (active)
GI50 [48]: 88.7 nM (active)
GI50 [59]: 59.4 nM (active)
GI50 [49]: 279 nM (active)
GI50 [50]: 1540 nM
GI50 [51]: 10.1 nM (active)
GI50 [52]: 179 nM (active)
GI50 [53]: 26.4 nM (active)
GI50 [54]: 304 nM (active)
GI50 [55]: 45.7 nM (active)
GI50 [56]: 51.2 nM (active)
GI50 [57]: 46.6 nM (active)
GI50 [58]: 46.3 nM (active)

From ChEMBL document CHEMBL1201862, “PubChem BioAssay data set” (2004)
